According to ChEMBL document CHEMBL2046303, “Discovery and Development of Potent LFA-1/ICAM-1 Antagonist SAR 1118 as an Ophthalmic Solution for Treating Dry Eye” (ACS Med Chem Lett, 2012):
Activity calls are given as the source filed them. The rule behind the calls is not given here.

Tests used:
[1] = biological target: T1, Intercellular adhesion molecule (ICAM-1), Integrin alpha-L/beta-2 (Homo sapiens, UniProt P05107+P05362+P20701); experiment: Antagonist activity at LFA-1/ICAM-1 in human HuT-78 T-cells assessed as inhibition of cell adhesion after 1 hr by p-nitrophenyl n-acetyl-beta-D-glucosaminide method; type: functional, cell-based, HuT78
T1 sequence (P20701 whole entry): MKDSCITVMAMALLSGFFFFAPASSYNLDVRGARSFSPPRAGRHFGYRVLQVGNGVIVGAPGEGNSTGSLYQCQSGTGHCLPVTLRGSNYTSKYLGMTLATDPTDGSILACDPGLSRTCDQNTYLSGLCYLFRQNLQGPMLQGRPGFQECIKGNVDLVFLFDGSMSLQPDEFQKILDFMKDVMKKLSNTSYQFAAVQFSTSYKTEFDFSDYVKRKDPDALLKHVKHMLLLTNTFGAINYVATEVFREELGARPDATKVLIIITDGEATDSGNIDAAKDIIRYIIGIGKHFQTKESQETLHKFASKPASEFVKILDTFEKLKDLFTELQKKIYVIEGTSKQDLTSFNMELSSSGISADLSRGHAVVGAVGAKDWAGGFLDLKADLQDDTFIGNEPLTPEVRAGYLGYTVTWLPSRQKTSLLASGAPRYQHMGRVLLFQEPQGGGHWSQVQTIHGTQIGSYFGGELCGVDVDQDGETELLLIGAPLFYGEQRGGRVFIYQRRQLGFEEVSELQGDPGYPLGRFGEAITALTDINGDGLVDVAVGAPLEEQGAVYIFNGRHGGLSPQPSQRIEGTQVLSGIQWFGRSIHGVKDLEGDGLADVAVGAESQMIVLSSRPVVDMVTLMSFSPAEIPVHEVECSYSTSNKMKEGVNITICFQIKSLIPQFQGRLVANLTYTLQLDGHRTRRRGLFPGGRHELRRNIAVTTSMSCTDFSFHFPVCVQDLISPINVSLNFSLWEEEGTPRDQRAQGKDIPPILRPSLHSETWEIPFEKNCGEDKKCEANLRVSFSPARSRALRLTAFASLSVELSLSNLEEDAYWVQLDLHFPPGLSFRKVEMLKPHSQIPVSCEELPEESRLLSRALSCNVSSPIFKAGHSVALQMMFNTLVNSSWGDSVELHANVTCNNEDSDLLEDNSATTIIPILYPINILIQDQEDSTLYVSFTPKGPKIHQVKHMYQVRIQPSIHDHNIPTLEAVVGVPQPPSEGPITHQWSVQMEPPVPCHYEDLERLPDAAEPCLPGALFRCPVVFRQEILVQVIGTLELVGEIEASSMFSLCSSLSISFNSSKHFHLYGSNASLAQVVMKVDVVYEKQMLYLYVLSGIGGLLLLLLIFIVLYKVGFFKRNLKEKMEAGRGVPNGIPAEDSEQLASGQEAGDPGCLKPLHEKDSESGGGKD
T1 sequence (P05362 whole entry): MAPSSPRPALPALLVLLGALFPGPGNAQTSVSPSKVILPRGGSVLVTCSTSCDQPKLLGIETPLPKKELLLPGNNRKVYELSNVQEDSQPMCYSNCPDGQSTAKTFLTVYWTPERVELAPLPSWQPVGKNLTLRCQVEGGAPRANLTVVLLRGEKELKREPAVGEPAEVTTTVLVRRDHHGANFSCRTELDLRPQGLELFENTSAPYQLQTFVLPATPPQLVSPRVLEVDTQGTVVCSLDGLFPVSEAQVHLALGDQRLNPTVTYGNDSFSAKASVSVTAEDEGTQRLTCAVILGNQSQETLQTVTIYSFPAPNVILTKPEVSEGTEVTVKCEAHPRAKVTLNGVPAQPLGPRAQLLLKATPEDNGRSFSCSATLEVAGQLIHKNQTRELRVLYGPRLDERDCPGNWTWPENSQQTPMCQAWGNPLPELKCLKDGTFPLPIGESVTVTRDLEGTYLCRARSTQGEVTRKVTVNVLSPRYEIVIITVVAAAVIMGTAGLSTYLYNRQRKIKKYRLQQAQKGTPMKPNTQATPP
T1 sequence (P05107 whole entry): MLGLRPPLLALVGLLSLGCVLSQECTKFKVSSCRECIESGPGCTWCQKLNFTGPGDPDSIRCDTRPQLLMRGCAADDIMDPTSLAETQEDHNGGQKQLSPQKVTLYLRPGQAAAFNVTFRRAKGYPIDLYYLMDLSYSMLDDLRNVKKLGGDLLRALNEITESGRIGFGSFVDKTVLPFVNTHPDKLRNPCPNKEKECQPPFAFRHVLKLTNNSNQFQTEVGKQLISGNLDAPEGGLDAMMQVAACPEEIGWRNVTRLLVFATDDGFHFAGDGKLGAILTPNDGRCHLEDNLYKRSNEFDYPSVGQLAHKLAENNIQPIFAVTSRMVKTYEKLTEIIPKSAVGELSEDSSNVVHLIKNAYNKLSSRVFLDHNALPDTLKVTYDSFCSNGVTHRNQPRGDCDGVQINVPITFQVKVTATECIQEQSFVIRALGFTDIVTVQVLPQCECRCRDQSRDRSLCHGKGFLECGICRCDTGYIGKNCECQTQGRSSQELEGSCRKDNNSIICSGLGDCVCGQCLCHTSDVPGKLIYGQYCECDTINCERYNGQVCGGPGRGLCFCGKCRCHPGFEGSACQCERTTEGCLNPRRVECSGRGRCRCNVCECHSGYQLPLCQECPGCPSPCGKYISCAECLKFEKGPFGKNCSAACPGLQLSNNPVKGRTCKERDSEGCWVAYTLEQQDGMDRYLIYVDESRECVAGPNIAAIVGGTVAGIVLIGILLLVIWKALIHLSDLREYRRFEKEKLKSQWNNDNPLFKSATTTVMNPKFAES

[2] = system: Rattus norvegicus; experiment: AUC in Sprague-Dawley rat at 5 mg/kg, iv; type: ADME, organism-based, Plasma; set-up: dose 5 mg/kg, route intravenous; conditions: in vivo
[3] = biological target: T1, Intercellular adhesion molecule (ICAM-1), Integrin alpha-L/beta-2; experiment: Antagonist activity at LFA-1/ICAM-1 in human HuT-78 T-cells assessed as inhibition of cell adhesion after 1 hr by p-nitrophenyl n-acetyl-beta-D-glucosaminide method in presence of 10% human serum; type: functional, cell-based, HuT78
[4] = Metabolic stability in rat liver microsomes assessed as compound remaining after 30 mins; type: ADME, Microsome; conditions: read-out: Stability
[5] = Metabolic stability in human liver microsomes assessed as compound remaining after 30 mins; type: ADME, Microsome; conditions: read-out: Stability
[6] = Half life in Sprague-Dawley rat at 5 mg/kg, iv; type: ADME, organism-based; set-up: dose 5 mg/kg, route intravenous; conditions: in vivo
[7] = Clearance in Sprague-Dawley rat at 5 mg/kg, iv; type: ADME, organism-based; set-up: dose 5 mg/kg, route intravenous; conditions: in vivo
[8] = Solubility of the compound in phosphate-buffered saline; type: physicochemical
[9] = biological target: Cytochrome P450 2C9 (Homo sapiens, UniProt P11712); experiment: Inhibition of CYP2C9; type: ADME
Cytochrome P450 2C9, sequence (P11712 whole entry): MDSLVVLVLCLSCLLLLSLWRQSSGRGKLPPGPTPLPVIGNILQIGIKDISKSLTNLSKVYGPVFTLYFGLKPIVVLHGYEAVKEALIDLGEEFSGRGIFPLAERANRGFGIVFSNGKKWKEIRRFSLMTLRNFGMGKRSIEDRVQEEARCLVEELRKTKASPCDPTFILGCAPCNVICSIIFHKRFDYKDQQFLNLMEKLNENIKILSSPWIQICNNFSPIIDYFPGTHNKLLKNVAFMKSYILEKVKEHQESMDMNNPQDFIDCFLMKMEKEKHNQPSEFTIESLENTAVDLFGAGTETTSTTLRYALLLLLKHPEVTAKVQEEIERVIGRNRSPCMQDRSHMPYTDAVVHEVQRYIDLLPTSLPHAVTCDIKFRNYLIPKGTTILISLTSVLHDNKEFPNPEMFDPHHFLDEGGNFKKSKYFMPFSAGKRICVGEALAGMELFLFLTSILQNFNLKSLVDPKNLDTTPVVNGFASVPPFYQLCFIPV

[10] = biological target: Cytochrome P450 3A4 (Homo sapiens, UniProt P08684); experiment: Inhibition of CYP3A4; type: ADME
Cytochrome P450 3A4, sequence (P08684 whole entry): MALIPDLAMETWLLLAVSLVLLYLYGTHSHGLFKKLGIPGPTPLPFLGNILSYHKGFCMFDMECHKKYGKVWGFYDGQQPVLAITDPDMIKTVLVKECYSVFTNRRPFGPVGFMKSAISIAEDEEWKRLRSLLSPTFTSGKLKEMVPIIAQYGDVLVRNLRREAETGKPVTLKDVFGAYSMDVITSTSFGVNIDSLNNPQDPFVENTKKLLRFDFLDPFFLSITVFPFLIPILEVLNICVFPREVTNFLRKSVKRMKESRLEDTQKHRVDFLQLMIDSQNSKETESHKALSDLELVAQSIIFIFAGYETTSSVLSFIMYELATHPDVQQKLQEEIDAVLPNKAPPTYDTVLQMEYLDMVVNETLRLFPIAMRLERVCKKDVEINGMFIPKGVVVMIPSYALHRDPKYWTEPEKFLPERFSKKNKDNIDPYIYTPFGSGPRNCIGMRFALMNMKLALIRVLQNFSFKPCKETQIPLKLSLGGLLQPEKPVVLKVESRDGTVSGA

[11] = system: Canis familiaris; experiment: Increase of mean schirmer's tear test in dog administered topically with 1% PBS solution tid for 12 weeks measured after 1 to 12 weeks; type: functional, Canis lupus familiaris
[12] = system: Salmonella typhimurium; experiment: Genotoxicity in Salmonella typhimurium by Ames test; type: toxicity, organism-based; conditions: salmonella enterica subsp. enterica serovar typhimurium
[13] = Drug uptake in rat cornea administered topically as ophthalmic solution after 30 mins; type: ADME, tissue-based; conditions: in vivo, topical_or_ocular, 0.5 h
[14] = Drug uptake in dog cornea administered topically as ophthalmic solution after 30 mins; type: ADME, tissue-based, Canis lupus familiaris; conditions: in vivo, topical_or_ocular, 0.5 h
[15] = Drug uptake in rat palpebral conjunctiva administered topically as ophthalmic solution after 30 mins; type: ADME, tissue-based; conditions: in vivo, topical_or_ocular, 0.5 h
[16] = Drug uptake in dog bulbar conjunctiva administered topically as ophthalmic solution after 30 mins; type: ADME, tissue-based, Canis lupus familiaris; conditions: in vivo, topical_or_ocular, 0.5 h
[17] = Drug uptake in rat bulbar conjunctiva administered topically as ophthalmic solution after 30 mins; type: ADME; conditions: in vivo, topical_or_ocular, 0.5 h
[18] = Drug uptake in dog palpebral conjunctiva administered topically as ophthalmic solution after 30 mins; type: ADME, tissue-based, Canis lupus familiaris; conditions: in vivo, topical_or_ocular, 0.5 h
[19] = biological target: Intercellular adhesion molecule 1 (Homo sapiens) (UniProt P05362); experiment: Inhibition of ICAM-1-mediated MIP-1alpha release
Intercellular adhesion molecule 1 (Homo sapiens), sequence (P05362 whole entry): as the sequence (P05362 whole entry) above

[20] = biological target: Intercellular adhesion molecule 1 (Homo sapiens) (UniProt P05362); experiment: Inhibition of ICAM-1-mediated IL-6 release
[21] = biological target: Intercellular adhesion molecule 1 (Homo sapiens) (UniProt P05362); experiment: Inhibition of ICAM-1-mediated IL-1beta release
[22] = biological target: Intercellular adhesion molecule 1 (Homo sapiens) (UniProt P05362); experiment: Inhibition of ICAM-1-mediated IFNgamma release
[23] = biological target: Intercellular adhesion molecule 1 (Homo sapiens) (UniProt P05362); experiment: Inhibition of ICAM-1-mediated IL-1alpha release
[24] = biological target: Intercellular adhesion molecule 1 (Homo sapiens) (UniProt P05362); experiment: Inhibition of ICAM-1-mediated IL-10 release

Compound | IC50 [1] | AUC [2] | IC50 [3] | remaining at 0.5 h [4] | remaining at 0.5 h [5] | half-life [6] | clearance [7] | further results
CS(=O)(=O)c1ccccc1C[C@H](NC(=O)c1c(Cl)cc2c(c1Cl)CCN(C(=O)c1ccc(Cl)cc1)C2)C(=O)O | > 1000 nM |  |  |  |  |  |  | 
CS(=O)(=O)c1ccc(C[C@H](NC(=O)c2c(Cl)cc3c(c2Cl)CCN(C(=O)c2ccc(Cl)cc2)C3)C(=O)O)cc1 | 250 nM |  |  |  |  |  |  | 
CS(=O)(=O)c1cc(F)cc(C[C@H](NC(=O)c2c(Cl)cc3c(c2Cl)CCN(C(=O)c2ccc4ccoc4c2)C3)C(=O)O)c1 | 10 nM | 1190 ng·h/mL | 260 nM | > 95% | > 95% | 39 min | 80.5 mL/min/kg | 
C[S+]([O-])c1cncc(CC(NC(=O)c2c(Cl)cc3c(c2Cl)CCN(C(=O)c2ccc4ccoc4c2)C3)C(=O)O)c1 (racemic) | 57 nM | 753 ng·h/mL | 50 nM | > 95% | > 95% | 16.2 min | 121 mL/min/kg | 
NS(=O)(=O)c1cccc(C[C@H](NC(=O)c2c(Cl)cc3c(c2Cl)CCN(C(=O)c2ccc4ccoc4c2)C3)C(=O)O)c1 | 4 nM | 2430 ng·h/mL | 200 nM | > 95% | 71% | 61.8 min | 34.4 mL/min/kg | 
CS(=O)(=O)c1cc(C[C@H](NC(=O)c2c(Cl)cc3c(c2Cl)CCN(C(=O)c2ccc4ccoc4c2)C3)C(=O)O)ccc1Cl | 120 nM |  | 2000 nM |  |  |  |  | 
CS(=O)(=O)c1cncc(C[C@H](NC(=O)c2c(Cl)cc3c(c2Cl)CCN(C(=O)c2ccc4ccoc4c2)C3)C(=O)O)c1 | 39 nM | 1280 ng·h/mL | 32 nM | > 95% | > 95% | 37.2 min | 73.5 mL/min/kg | 
CS(=O)(=O)c1cc(Cl)cc(C[C@H](NC(=O)c2c(Cl)cc3c(c2Cl)CCN(C(=O)c2ccc4ccoc4c2)C3)C(=O)O)c1 | 10 nM |  | 200 nM |  |  |  |  | 
C[C@@H](O)c1cccc(C[C@H](NC(=O)c2c(Cl)cc3c(c2Cl)CCN(C(=O)c2ccc4ccoc4c2)C3)C(=O)O)c1 | 10 nM |  | 4000 nM |  |  |  |  | 
CC(C)S(=O)(=O)c1cccc(C[C@H](NC(=O)c2c(Cl)cc3c(c2Cl)CCN(C(=O)c2ccc4ccoc4c2)C3)C(=O)O)c1 | 200 nM |  | > 10000 nM |  |  |  |  | 
CCS(=O)(=O)c1cccc(C[C@H](NC(=O)c2c(Cl)cc3c(c2Cl)CCN(C(=O)c2ccc4ccoc4c2)C3)C(=O)O)c1 | 2 nM |  | 180 nM |  |  |  |  | 
CS(=O)(=O)c1ccc(C[C@H](NC(=O)c2c(Cl)cc3c(c2Cl)CCN(C(=O)c2ccc(Cl)cc2)C3)C(=O)O)o1 | 6 nM | 1130 ng·h/mL | 240 nM | > 95% | 92% | 16.2 min | 74.3 mL/min/kg | 
CS(=O)(=O)c1cccc(C[C@H](NC(=O)c2c(Cl)cc3c(c2Cl)CCN(C(=O)c2ccc4ccoc4c2)C3)C(=O)[O-])c1.[Na+] [LIFITEGRAST SODIUM] |  |  |  |  |  |  |  | solubility [8]: ≥ 200 mg/mL
CS(=O)(=O)c1cccc(C[C@H](NC(=O)c2c(Cl)cc3c(c2Cl)CCN(C(=O)c2ccc4ccoc4c2)C3)C(=O)O)c1Cl | 800 nM |  |  |  |  |  |  | 
CNS(=O)(=O)c1cccc(C[C@H](NC(=O)c2c(Cl)cc3c(c2Cl)CCN(C(=O)c2ccc4ccoc4c2)C3)C(=O)O)c1 | 13 nM |  | 640 nM |  |  |  |  | 
CS(=O)(=O)c1cccc(C[C@H](NC(=O)c2c(Cl)cc3c(c2Cl)CCN(C(=O)c2ccc4ccoc4c2)C3)C(=O)O)c1 [listing 1 of 2 here] | 9 nM | 705 ng·h/mL | 74 nM | > 95% | 71% | 46.8 min | 139 mL/min/kg | IC50 [9]: 3000 nM; IC50 [10]: > 20000 nM; Activity [11]: 3.4 mm; Activity [12]: Non-toxic
CC(=O)c1cccc(C[C@H](NC(=O)c2c(Cl)cc3c(c2Cl)CCN(C(=O)c2ccc4ccoc4c2)C3)C(=O)O)c1 | 12 nM |  | 5600 nM |  |  |  |  | 
CC(C)c1cccc(C[C@H](NC(=O)c2c(Cl)cc3c(c2Cl)CCN(C(=O)c2ccc(Cl)cc2)C3)C(=O)O)c1 | 10 nM |  | > 10000 nM |  |  |  |  | 
CS(=O)(=O)c1cccc(C[C@H](N[14C](=O)c2c(Cl)cc3c(c2Cl)CCN(C(=O)c2ccc4ccoc4c2)C3)C(=O)O)c1 |  |  |  |  |  |  |  | Drug uptake [13]: Active; Drug uptake [14]: Active; Drug uptake [15]: Active; Drug uptake [16]: Active; Drug uptake [17]: Active; Drug uptake [18]: Active
C[C@H](O)c1cccc(C[C@H](NC(=O)c2c(Cl)cc3c(c2Cl)CCN(C(=O)c2ccc4ccoc4c2)C3)C(=O)O)c1 | 14 nM |  | 940 nM |  |  |  |  | 
CS(=O)(=O)c1cccc(C[C@H](NC(=O)c2c(Cl)cc3c(c2Cl)CCN(C(=O)c2ccc(Cl)cc2)C3)C(=O)O)c1 | 3 nM |  | 200 nM |  |  |  |  | 
CN(C)S(=O)(=O)c1cccc(C[C@H](NC(=O)c2c(Cl)cc3c(c2Cl)CCN(C(=O)c2ccc4ccoc4c2)C3)C(=O)O)c1 | 10 nM |  | > 10000 nM |  |  |  |  | 
CS(=O)(=O)c1ccc(C[C@H](NC(=O)c2c(Cl)cc3c(c2Cl)CCN(C(=O)c2ccc4ccoc4c2)C3)C(=O)O)o1 |  | 1510 ng·h/mL |  | > 95% | 65% | 25.8 min | 60 mL/min/kg | 
CS(=O)(=O)c1ccc(Cl)c(C[C@H](NC(=O)c2c(Cl)cc3c(c2Cl)CCN(C(=O)c2ccc4ccoc4c2)C3)C(=O)O)c1 | 120 nM |  |  |  |  |  |  | 
CS(=O)(=O)c1cccc(C[C@H](NC(=O)c2c(Cl)cc3c(c2Cl)CCN(C(=O)c2ccc4ccoc4c2)C3)C(=O)O)c1 [listing 2 of 2 here] |  |  |  |  |  |  |  | inhibition [19]: Active; inhibition [20]: Active; inhibition [21]: Active; inhibition [22]: Active; inhibition [23]: Active; inhibition [24]: Active
CP(C)(=O)c1cccc(C[C@H](NC(=O)c2c(Cl)cc3c(c2Cl)CCN(C(=O)c2ccc4ccoc4c2)C3)C(=O)O)c1 | 58 nM | 2260 ng·h/mL | 490 nM | > 95% | > 95% | 22.2 min | 37 mL/min/kg | 
